US20230255934A1, “NURR1 RECEPTOR MODULATORS AND USES THEREOF” (The Regents of the University of California, priority 2020, published 2023)
“Also recorded” adds a separate entry of the source.

Columns and labels:
RXRα LBD = molecular target: T1, RXRα LBD (Homo sapiens, UniProt P19793); experiment: MST binding to RXRα LBD (specificity control)
T1 construct: made in house
T1 sequence (P19793 with tags, fused parts or gaps): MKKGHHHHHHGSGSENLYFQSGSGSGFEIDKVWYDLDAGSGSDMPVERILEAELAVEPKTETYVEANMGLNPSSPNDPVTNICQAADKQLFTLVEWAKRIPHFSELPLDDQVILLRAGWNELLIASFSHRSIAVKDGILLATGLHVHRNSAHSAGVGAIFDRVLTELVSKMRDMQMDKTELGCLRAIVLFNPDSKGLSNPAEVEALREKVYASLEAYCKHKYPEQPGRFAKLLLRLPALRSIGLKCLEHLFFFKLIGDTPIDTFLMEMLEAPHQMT
From the text: The Nurr1 LBD protein, containing the N-terminal “LAP2” sequence that is recognized by a “coumarin ligase”, was expressed and purified using metal affinity and size-exclusion chromatography according to the previously reported protocol, except that the TEV cleavage step and reverse metal affinity chromatography were omitted.^1 The RXRα LBD protein, containing the N-terminal “LAP2” sequence, was expressed and purified identically to the Nurr1 LBD protein with minor modifications. Specifically, the elution of protein from Talon resin was performed by a step gradient of 10 CV each of 50 mM, 100 mM, 200 mM and 300 mM imidazole in 50 mM Tris-HCl buffer containing 300 mM NaCl at pH 7.8. Purity of protein in each fraction was analyzed by SDS PAGE and fractions eluted with 100-300 mM imidazole were pooled and concentrated. […]
Data were collected using the Monolith NT.115 System (Nanotemper), with settings for all samples at 40% excitation power and 40% MST power. The initial fluorescence was recorded for 3 sec and the thermophoresis fluorescence response was recorded for 20 sec. The data was inspected with Palmist software^5, and data points affected by initial fluorescence quenching or photobleaching were eliminated. The fluorescent response for each sample was normalized to the initial fluorescence using Palmist software to provide the values of thermophoresis (Fn). […]

[1] = tested on: Nurr1 (siRNA knockdown) in MN9D cells; experiment: Nurr1 knockdown (siRNA) assay with qPCR of target genes in MN9D cells; assay type: cell-based, mouse; settings: 10 μM, 24 h, Nurr1 siRNA vs control siRNA
Experimental: Nurr1 knockdown (siRNA) assays were completed according to standard protocols. Briefly, MN9D cells were resuspended in DMEM/F-12 with 5% FBS at 1·10^6 cells/mL, and reverse-transfected with either control or Nurr1 siRNAs (40 nM final concentration) by combining 4 mL of cell suspension with 1 mL of Opti-MEM containing 200 nM siRNA and 10 μL Lipofectamine 2000 (Invitrogen, cat #:11668019). The resulting cell suspension was plated on poly-D-lysine treated six-well plates at 2.5 mL/well, and allowed to incubate for 24 h at 37° C., in 5% CO2 incubator. After 24 hours, the cells were trypsinized, resuspended in DMEM/F-12 with 5% FBS at 2·10^5 cells/mL, mixed with equal volume of 20 μM 5-chloroindole in the same media containing 0.2% DMSO (prepared by diluting DMSO stock of 5-chloroindole (10 mM) in warm DMEM/F-12 with 5% FBS; for the DMSO control an equivalent volume of DMSO was used instead of the compound stock), and immediately re-plated on poly-D-lysine pre-treated 24-well plates at 1-10^5 cells/well and incubated as above. After 24 hours, total RNA was isolated and the target gene transcription assay (qPCR) was performed as described above. Nurr1 siRNA N1 were purchased from Sigma (Cat No. SASI_Mm02_00322368), and the sequences were as follows: 5′-GAA UCA GCU UUC UUA GAA U[dT][dT]-3′ (SEQ ID NO:17) (sense) and 5′-AUU CUA AGA AAG CUG AUU C[dT][dT]-3′ (SEQ ID NO:18) (antisense). […]

Clc1ccc2[nH]ccc2c1 [5-chloroindole]
Binding to the RXRα LBD (in words) (RXRα LBD): does not exhibit saturable binding
Effect on expression of Th and Vmat2 with knockdown of Nurr1 [1]: significantly reduced in the presence of Nurr1 siRNA, but not control siRNA; also recorded: inhibited by siRNA specific for Nurr1
